Results on 5 compounds are retold here after EP3305318A1, “[6R]-5,10-METHYLENETETRAHYDROFOLATE IN 5-FLUOROURACIL BASED CHEMOTHERAPY” (Isofol Medical AB, priority 2016, dated 2018).

Like-named read-outs stand apart in the source and are kept apart here.

One assay deals with colorectal tumors. Conditions: cited from earlier work.
Assay [1] deals with advanced and recurring head and neck squamous cell cancer. Conditions: 5-FU in combination therapies with platinum compounds; cited from earlier work.
The test system of a further assay is metastatic breast cancer. Conditions: 5-FU combined with cyclophosphamide and methotrexate (CMF); cited from earlier work.
Another assay relates to solid tumours. Conditions: cited from earlier work.
For the next assay, the target named is T1, TS (Lacticaseibacillus casei, UniProt P00469).
T1 sequence (P00469 1-316): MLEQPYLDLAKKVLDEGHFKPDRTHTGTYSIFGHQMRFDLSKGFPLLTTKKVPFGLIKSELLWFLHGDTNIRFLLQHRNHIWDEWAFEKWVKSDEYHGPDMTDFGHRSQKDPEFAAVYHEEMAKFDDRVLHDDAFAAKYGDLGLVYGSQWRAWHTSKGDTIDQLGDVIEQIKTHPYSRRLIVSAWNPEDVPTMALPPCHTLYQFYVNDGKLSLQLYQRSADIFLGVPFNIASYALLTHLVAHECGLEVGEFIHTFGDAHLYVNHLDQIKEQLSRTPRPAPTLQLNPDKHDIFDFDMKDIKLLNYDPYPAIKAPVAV
Conditions: cited from earlier work.

Assay [2] has as its system previously untreated metastatic colorectal cancer. Conditions: Phase II trial; cited from earlier work.
Assay [3] has as its system colorectal cancer. Conditions: Phase IIb study; cited from earlier work.
Another assay relates to pancreas cancer. Conditions: CoFactor combined with 5-FU, phase I/II; cited from earlier work.
The subject of assay [4] is colorectal cancer. Briefly: 5-FU bolus followed by multiple IV boluses of [6R]-MTHF in colorectal cancer patients (Phase I/II dose cohort trial). It counts as in vivo, human. Conditions: initial administration of 5-FU followed by multiple IV boluses of [6R]-MTHF, interval of about 10 min - 4 hours between each bolus. An excerpt: As used herein, the term ORR shall refer to the Objective Response Rate, ie. the proportion of patients with reduction in tumor burden of a predefined amount. This shall be calculated as follows: ORR = Sum of partial responses plus complete responses as per RECIST 1.1 (a set of published rules that define when tumours in cancer patients progress during treatments, the responses being defined as: • Complete Response: Disappearance of all target lesions. • Partial Response: At least a 30% decrease in the sum of the diameters of target lesions, taking as reference the baseline sum diameters. (Eisenhauer EA, Therasse P, Bogaerts J, Schwartz LH, Sargent D, Ford R, et al. New response evaluation criteria in solid tumours: revised RECIST guideline (version 1.1). Eur J Cancer. 2009 Jan; 45(2):228-47)
The safety and efficacy of [6R]-5,10-methylenetetrahydrofolate is analyzed in an open-label, multiple-site, Phase I/II Dose Cohort Trial in combination with a fixed dose of 5-Fluorouracil (5-FU) alone or together with a fixed dose of Oxaliplatin or Irinotecan in patients with stage IV colorectal cancer. […]
[6R]-5,10-Methylenetetrahydrofolic acid is formulated as a lyophylised powder containing 100 mg per vial (calculated as free acid). […]

Take `O=c1[nH]cc(F)c(=O)[nH]1` [5-FU, 5-fluorouracil]: in the assay with colorectal tumors (5-FU given as a monotherapy), the response rate result is “around 10%”. Besides, in [1], the Response rates result is “around 30%” and the survival time entry was “around 6 months”. Moreover, in the assay on metastatic breast cancer, the OS result was “around 20 months” and the reponse rate entry is “around 20%”. Besides, the overall response rate with solid tumours (5-FU alone) was 10-15%.

Take `Nc1nc2c(c(=O)[nH]1)N(C=O)C(CNc1ccc(C(=O)N[C@@H](CCC(=O)O)C(=O)O)cc1)CN2` (stereo partly shown) [LV, Leucovorin]: in the assay on colorectal tumors (Leucovorin (LV) added to 5-FU), the response rate is given as 21%. The overall response rates entry in the assay on solid tumours (LV added to 5-FU) is “over 20%”.

`Nc1nc2c(c(=O)[nH]1)N1CN(c3ccc(C(=O)N[C@@H](CCC(=O)O)C(=O)O)cc3)C[C@@H]1CN2` [(6S)-isomer]: at TS, the “effect on the natural [6R]-isomer as co-substrate for TS” value was “partial competitive inhibitor”.

`Nc1nc2c(c(=O)[nH]1)N1CN(c3ccc(C(=O)N[C@@H](CCC(=O)[O-])C(=O)[O-])cc3)CC1CN2.[Ca+2]` (stereo partly shown) [CoFactor®, [6R,S]-5,10-methylene-THF Ca salt]: the response rate in assay [2] is 35%. Besides, the “efficacy or safety compared with leucovorin study arm” value with colorectal cancer [3] is given as “no significant differences”. The “clinical benefit, defined as stable disease or tumor response” value in the assay on pancreas cancer is given as 40 % of patients.

For the compound `Nc1nc2c(c(=O)[nH]1)N1CN(c3ccc(C(=O)N[C@@H](CCC(=O)O)C(=O)O)cc3)C[C@H]1CN2` [[6R]-MTHF, [6R]-5,10-methylenetetrahydrofolate], the “ORRs (objective response rates)” value with colorectal cancer [4] is 50-60%.
